In patent publication US20240318143A1, “POST-PROCESSING OF BIOLOGICAL SCAFFOLDS” (Lung Biotechnology PBC, priority 2023, published 2024):

System: PAECs
Test: PAEC attachment and morphology after 24 hours on discs surface modified with peptides (FIGS. 8A-10G, FIJI analysis)
Type: cell-based
Settings: 24 hours after seeding, surface modification at 2 μmol/cm^2 and 0.2 μmol/cm^2 (Tests 1-3)
Experimental: For the experiments in FIGS. 7A-7S, 18 multi-wells were washed in 70% RA. The multi-wells were split into 6 groups of surface modification, which were P/G/A/B/F, PHSRNKRGD (SEQ ID NO: 9) (referred to as “PHK” in the figures), AG73, GFOGER (SEQ ID NO: 10), BM-Binder, and FN-Binder. Surface modification was conducted with the peptide solutions in Table 4. Peptides were prepared at 2 μmol/cm^2 concentrations for surface modification, but the actual concentration was adjusted for the thiol concentration. Following surface modification, wells were seeded with PAECs at a concentration of 625000 per cm^2. 24 hours after seeding, the wells were fix stained and imaged to quantify cell morphology. Model surface area was 10.1 cm^2.
FIGS. 8A-10G provide data on experiments to compare cell seeding and proliferation on surfaces with single peptide or combination peptide modification at different concentrations, 2 μmol/cm^2 and 0.2 μmol/cm^2. The solutions used for peptide modification had the actual peptide concentrations noted in Table 5.
(§1) FIGS. 8A-8G illustrate PAEC morphology after 24 hours on discs surface modified with various peptides at 2 μmol/cm^2 concentration according to Test 1. FIG. 8A are stained disk scans of PAECs cultured on 6 different surface modification peptides. FIGS. 8B-8G are graphs of FIJI analysis of circularity frequency distribution.
as §1, with “9A-9G” for “8A-8G”, “concentration adjusted to the volume used in the PGABF′ condition” for “concentration”, “2.” for “1.”, “9A” for “8A”, “9B-9G” for “8B-8G”
FIGS. 10A-10G illustrate PAEC morphology after 24 hours on discs surface modified with various peptides at 0.2 μmol/cm^2 concentration according to Test 3. FIG. 10A are stained disk scans of PAECs cultured on 6 different surface modification peptides. […] FIJI analysis is a method of quantifying stained disk scans. […]

Row | Sequence | Cell attachment and morphology
1 | GCREISAFLGIPFAEPPMGPRRFLPPEPKKP [B] | little cell attachment and those that were attached were round with little to no elongation
2 | GCREKKRKRLQVQLSIRT [A, laminin-derived peptide recognized by syndecans] | some cells that were elongated but that did not have full stretching as seen in other test conditions, and an increase in rounder cells
3 | GCREKKTLQPVYEYMVGV [F] | little cell attachment and those that were attached were round with little to no elongation
